PMC7714071, “Interaction of amyloid beta with humanin and acetylcholinesterase is modulated by ATP” (FEBS Open Bio, 2020)

What was measured:
Aβ40 = conditions: HN and AChE compared; cited from earlier work
Excerpt: Amino acid residues involved in direct interactions between HN and Aβ40 were identified previously by molecular modeling. The specific epitopes at the binding interface between HN and Aβ40 were identified, by proteolytic epitope excision and extraction in addition to affinity–mass spectrometric data analysis, to be HN (5–15) and Aβ (17–28). […] Inhibiting the 17–28 region of Aβ reduced aggregation of the neurotoxic amyloid fibrils and related cytotoxicity in SH‐SY5Y, a human neuroblastoma cell ... || Humanin has been previously reported to bind amino acid residues 17–28 of Aβ (Fig. 1). AChE is also known to bind Aβ (1–16) and the Aβ (12–28) region (Fig. 1). Since the binding sites of AChE and HN on Aβ are overlapping, we previously investigated whether HN and AChE can simultaneously bind Aβ [79].

Aβ42 = conditions: binds directly to Aβ42; cited from earlier work
Excerpt: Almost all types of cells produce amyloid beta (Aβ), a peptide well recognized for its role in the development and progression of different stages of Alzheimer's disease (AD). The Aβ peptide is ~ 4 kDa and derived from the sequential processing of the higher molecular weight amyloid precursor protein by two membrane‐bound endoproteases, β‐ and γ‐secretase. Different C‐terminal Aβ heterogeneity results from processing by γ‐secretase, where Aβ40 represents the most abundant isoform (~ 90%) as compared to Aβ42 (~ 10%). Self‐assembled Aβ40/42 peptides into amyloid fib ... || Amino acid residues involved in direct interactions between HN and Aβ40 were identified previously by molecular modeling. The specific epitopes at the binding interface between HN and Aβ40 were identified, by proteolytic epitope excision and extraction in addition to affinity–mass spectrometric data analysis, to be HN (5–15) and Aβ (17–28). […] Inhibiting the 17–28 region of Aβ reduced aggregation of the neurotoxic amyloid fibrils and related cytotoxicity in SH‐SY5Y, a human neuroblastoma cell ... || Acetylcholinesterase (AChE) is an enzyme known for its role in terminating acetylcholine‐mediated neurotransmission at the synaptic cleft. The majority of the cortical AChE in the Alzheimer's brain is mainly associated with the amyloid core of senile plaques. […]

AChE-Aβ interaction = conditions: cited from earlier work
Excerpt: Access to the central domain of Aβ (residues 17–24) flanked by Lys‐16 and Lys‐28, known to be a critical structural element in fibrillar Aβ aggregates, might be regulated by binding of AChE and HN to their overlapping binding sites on Aβ. […] Moreover, we s ...

[1] = tested on: HN-Aβ complex (A549 cell-conditioned media); experiment: ELISA, HN found in a complex with Aβ in A549 cell-conditioned media; type: binding, human; conditions: 6E10 or 82E1 on wells, relative to samples without ATP, three experiments in triplicate, Fig. 5A
Protocol: (§1) Human NSCLC cell lines, A549 (ATCC CCL‐185) and H1299 (ATCC CRL‐5803), were purchased from the American Type Culture Collection (ATCC, Manassas, VA, USA). Cells were seeded as we reported earlier in 5 mL HyClone Dulbecco's modified Eagle's medium/nutrient mixture F‐12 (DMEM/F12) (GE Healthcare Life Sciences, Pittsburgh, PA, USA), supplemented with 10% Fetalgro bovine growth serum (FBS; RMBIO, Missoula, MT, USA), 50 U·mL^−1 penicillin, and […] streptomycin (Invitrogen, Life Technologies, Carlsbad, CA, USA) in 25‐cm^2 tissue culture flasks, and allowed to grow overnight in an incubator at 37 °C, 95% humidity, and 5% CO2. The cells were counted after trypan blue staining, with a hemocytometer.
(§2) ELISAs were carried out as we previously reported. […] TBST was then used to wash the wells 4× before proceeding in one of two ways: (a) biotinylated samples were analyzed by adding 100 µL streptavidin–HRP conjugate in TBST (1 : 2500 dilution) to the samples followed by incubation for 3 h at RT on a shaker, or (b) samples without biotin were analyzed by adding 100 µL TBST containing the primary antibody as per the manufacturer's recommendation, incubating for 3 h at RT on a shaker, followed by washing the wells 4× with TBST. […] The reaction was stopped with 100 µL 2 M H2SO4 after incubating at RT for 0.5–15 min, resulting in a yellow color change, measured by absorbance at 450 nm. […]

[2] = tested on: HN-Aβ complex (H1299 cell-conditioned media); experiment: ELISA, HN found in a complex with Aβ in H1299 cell-conditioned media; type: binding, human; conditions: ATP 100 μM, 1 mM; increased levels, compared with A549 media; Fig. 5C,D
Protocol: as §1, §2

Molecule	affinity for Aβ40 (Aβ40)	antioligomeric activity (Aβ42)	effect of HN on binding of AChE to Aβ (AChE-Aβ interaction)	increase in the amount of HN bound to Aβ ([1]; 100 μM ATP)	increase in the amount of HN bound to Aβ ([1]; 1 mM ATP)	levels of HN bound to Aβ in the presence of ATP [2]
Humanin [HN]	comparable affinities	exhibit antioligomeric activity	it is not abolished	–	–	–
Nc1ncnc2c1ncn2[C@@H]1O[C@H](COP(=O)(O)OP(=O)(O)OP(=O)(O)O)[C@@H](O)[C@H]1O [ATP, Adenosine triphosphate]	–	–	–	~ 1.85 fold	~ 2.5 fold	also comparable
